Read-outs that look alike come from different tables or passages of the source.
Assays:
786-O-Hif-Luc cells = experiment: Luciferase assay (HIF responsive element reporter); conditions: 24 h
Protocol: A pool of infected cells were then selected against 2 μg/mL of puromycin (P8833, Sigma) for 10 days followed by limited dilution to select single clones.
Each concentration was tested in triplicate. After about 24 hours, luciferase activity was determined using ONE-Glo Luciferase Assay Reagent (E6110, Promega) following the manufacturer's recommended procedure. EC50 were calculated using Dotmatics software.

[1] = target: T1, HIF-2α HIS TAG-PASB Domain (Homo sapiens, UniProt Q99814); experiment: HIF-2α Scintillation Proximity Assay (SPA); assay type: binding; conditions: displacement of tritiated probe Compound 183
T1 construct: 100 nM HIF-2α HIS TAG-PASB Domain
Protocol: The total assay volume was about 100 μL in the following configuration: 2 μL compound in 100% DMSO, 88 μL buffer with protein and probe and 10 μL of SPA beads. […] The percent inhibition was determined and IC50 values were calculated using the Dotmatics system based on the following equation: % inhibition=[(high control−sample)/(high control−low control)]×100.

786-O cells = experiment: VEGF ELISA assay; assay type: cell-based; conditions: Homo sapiens, 786-0
Protocol: Each concentration was plated in duplicate. About 20 hours later, medium was removed by suction and each well was supplied with 180 μL of growth medium. About 20 µl freshly-made 10× compound stocks were added to each well. […] The EC50 was calculated by GraphPad Prism using the dose-response-inhibition (four parameter) equation. The cell-seeded plate was then subjected to CellTiter-Glo luminescence cell viability assay (Promega) by adding 50 μL of Celltiter Glo reagent into each well and shaking the plate for 8 minutes at 550 rpm (Thermomixer R, Eppendorf) then the luminescence signal immediately read in a plate reader (3 second delay, 0.5 second/well integration time, Synergy 2 multi Detection Microplate reader).

[2] = tested on: CT26.WT mouse carcinoma cells; experiment: Mouse colon CT26 syngeneic tumor model; conditions: BALB/c mice, after 20 days of treatment; Compound 163 30 mg/kg BID, α-CTLA-4 or IgG control 10 mg/kg BIW
[3] = tested on: B16-F10 mouse melanoma cells; experiment: Mouse melanoma B16-F10 syngeneic tumor model; conditions: C57BL/6 mice, after 14 days of treatment; Compound 163 30 mg/kg BID, α-PD-1 or IgG control 10 mg/kg BIW
[4] = read-out: Mean Luciferase EC50 (nM)
[5] = read-out: Mean Luciferase EC50 (nM), 786-O-Hif-Luc cells, about 24 hours

T1 sequence (Q99814 240-350 limits assumed): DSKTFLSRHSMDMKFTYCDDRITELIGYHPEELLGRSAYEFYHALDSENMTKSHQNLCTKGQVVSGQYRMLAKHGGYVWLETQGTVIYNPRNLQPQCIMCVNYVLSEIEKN

Compound	EC50 (786-O-Hif-Luc cells; [4])	IC50 [1]	other results
N#Cc1cc(Cl)cc(Oc2ccc(S(=O)(=O)CF)c3c2CC(F)(F)[C@H]3O)c1 [Compound 167]	< 50 nM		
N#Cc1cc(F)cc(Oc2ccc(S(=O)(=O)C(F)(F)F)c3c2CC(F)(F)[C@H]3N)c1 [Compound 290]	50 to 249 nM		
CCCOc1ccc(S(=O)(=O)C(F)F)c2c1CC(F)(F)[C@H]2O [Compound 676]		0.05 to 0.249 µM	EC50 (786-O-Hif-Luc cells; [5]): 50 to 249 nM
CS(=N)(=O)c1ccc(Oc2cc(F)cc(F)c2)c2c1[C@H](O)C(F)(F)C2 (stereo partly shown) [Compound 192]		0.05 to 0.249 µM	EC50 (786-O-Hif-Luc cells; [5]): 250 to 1000 nM
N#Cc1c(Oc2cc(F)cc(Cl)c2)ccc(S(=O)(=O)C(F)(F)F)c1F [Compound 153]		0.05 to 0.249 µM	
O=S(=O)(c1ccc(Oc2cc(F)cc(Cl)c2)c(Cl)c1CO)C(F)F [Compound 41]	250 to 1000 nM		EC50 (786-O cells): 0.25 to 1 µM
O=S(=O)(c1ccc(OCC(F)F)c2c1[C@H](O)C(F)(F)C2)C(F)F [Compound 677]		< 0.05 µM	EC50 (786-O-Hif-Luc cells; [5]): 50 to 249 nM
NS(=O)(=O)c1ccc(Oc2cc(F)cc(F)c2)c2c1[C@H](O)C(F)(F)C2 [Compound 256]	< 50 nM		
CNS(=O)(=O)c1ccc(Oc2cc(F)cc(C#N)c2)c2c1[C@H](O)C(F)(F)C2 [Compound 254]	50 to 249 nM		
O=S(=O)(CF)c1ccc(O[C@H]2C[C@H](F)C2)c2c1[C@H](O)C(F)(F)[C@@H]2F [Compound 742]		< 0.05 µM	
O[C@H]1c2c(C(F)(F)F)ccc(OCC(F)F)c2C[C@H]1F [Compound 696]		0.05 to 0.249 µM	EC50 (786-O-Hif-Luc cells; [5]): 50 to 249 nM
CC(C)(C)OC(=O)N[C@H]1C[C@@H](Oc2ccc(S(=O)(=O)C(F)(F)F)c3c2CC(F)(F)[C@H]3O)C1 [Compound 722]		> 1 µM	EC50 (786-O-Hif-Luc cells; [5]): > 1000 nM
CCS(=O)(=O)c1ccc(Oc2cc(F)cc(C#N)c2)c2c1[C@H](O)C(F)(F)C2 [Compound 206]	50 to 249 nM		
CS(=O)(=O)c1ccc(OC2CCOCC2)c2c1[C@H](O)C(F)(F)[C@@H]2F [Compound 796]		< 0.05 µM	EC50 (786-O-Hif-Luc cells; [5]): 250 to 1000 nM
N#Cc1cc(F)cc(Oc2ccc(S(=O)(=O)C(F)(F)F)c3c2CC[C@H]3O)c1 [Compound 57]	50 to 249 nM		
N#Cc1cc(F)cc(Oc2ccc(S(N)(=O)=O)c3c2CC(F)(F)[C@H]3O)c1 [Compound 252]	50 to 249 nM		
CS(=O)(=O)c1ccc(Oc2cc(F)cc(C#N)c2)c2c1[C@H](O)[C@H](F)C2 [Compound 231]	< 50 nM		
O=S(=O)(CF)c1ccc(OC2CC(F)C2)c2c1[C@H](O)C(F)(F)[C@@H]2F (stereo partly shown) [Compound 742]			EC50 (786-O-Hif-Luc cells; [5]): < 50 nM; EC50 (786-O cells): < 0.05 µM
O=S(=O)(c1ccc(Oc2cc(F)cc(Cl)c2)c(Br)c1C=NO)C(F)(F)F [Compound 107]		0.05 to 0.249 µM	EC50 (786-O-Hif-Luc cells; [5]): 250 to 1000 nM

Compound	EC50 (786-O-Hif-Luc cells; [4])	IC50 [1]	other results
O=S(=O)(c1ccc(Oc2cc(F)cc(Cl)c2)c2c1C(O)CC2)C(F)F (stereo not shown) [Compound 17]			EC50 (786-O cells): 0.05 to 0.249 µM
CNS(=O)(=O)c1ccc(Oc2cc(F)cc(F)c2)c2c1[C@H](O)C(F)(F)C2 [Compound 251]	50 to 249 nM		
N#Cc1ccc(Oc2cc(F)cc(F)c2)c2c1[C@H](O)C(F)(F)C2 [Compound 67]			EC50 (786-O cells): 0.05 to 0.249 µM
CS(=O)(=O)c1ccc(OC[C@H]2CC2(F)F)c2c1[C@H](O)C(F)(F)[C@@H]2F [Compound 769]		0.05 to 0.249 µM	EC50 (786-O-Hif-Luc cells; [5]): 250 to 1000 nM
O=S(=O)(c1ccc(Oc2cc(F)cc(Cl)c2)c(C(F)F)c1)C(F)(F)F [Compound 124]	250 to 1000 nM		EC50 (786-O cells): 0.25 to 1 µM
CS(=O)(=O)c1ccc(Oc2cc(F)cc(C#N)c2)c2c1C(O)C(F)(F)C2 (stereo not shown) [Compound 223]	50 to 249 nM		
O=S(=O)(c1ccc(OC2CCNCC2)c2c1C(O)C(F)(F)C2)C(F)(F)F (stereo not shown) [Compound 606]		> 1 µM	
N#Cc1cc(F)cc(Oc2ccc3c(c2C(F)F)[C@@H](N)C(F)(F)S3(=O)=O)c1 [Compound 387]		0.05 to 0.249 µM	
N#Cc1cc(F)cc(Oc2ccc(S(=O)(=O)C(F)F)c3c2CCC3F)c1 (stereo not shown) [Compound 202]		0.25 to 1 µM	EC50 (786-O-Hif-Luc cells; [5]): > 1000 nM
O=S(=O)(c1ccc(-c2cccc(O)c2)c2c1[C@H](O)C(F)(F)C2)C(F)(F)F [Compound 564]		> 1 µM	
N#Cc1cc(F)cc(Oc2ccc(S(=O)(=O)C(F)F)c3c2CC[C@H]3O)c1 [Compound 155]	50 to 249 nM		EC50 (786-O cells): 0.05 to 0.249 µM
O=S(=O)(c1ccc(OC2CC(O)C2)c2c1[C@H](O)C(F)(F)C2)C(F)(F)F (stereo partly shown) [Compound 644]		0.25 to 1 µM	EC50 (786-O-Hif-Luc cells; [5]): 250 to 1000 nM
O=S(=O)(c1ccc(OC2CCCNC2)c2c1C(O)C(F)(F)C2)C(F)(F)F (stereo not shown) [Compound 797]		> 1 µM	
CS(=O)(=O)c1ccc(Oc2cc(F)cc(C#N)c2)c2c1C(O)C(F)C2 (stereo not shown) [Compound 232]	< 50 nM		
N#Cc1cncc(Oc2ccc(S(=O)(=O)C(F)(F)F)c3c2CC(F)(F)[C@H]3O)c1 [Compound 235]	< 50 nM		
N#CC1CCc2c(OCC(F)F)ccc(C(F)(F)F)c21 (stereo not shown) [Compound 691]		> 1 µM	
C[C@H]1C[C@@H](O)c2c(S(=O)(=O)C(F)F)ccc(Oc3cc(F)cc(Cl)c3)c21 [Compound 7a]	250 to 1000 nM		
O=S(=O)(c1ccc(Oc2cc(F)cc(Cl)c2)c2c1[C@H](O)CC2)C(F)F [Compound 1]			EC50 (786-O cells): 0.25 to 1 µM
CS(=O)(=O)c1ccc(Oc2cc(F)cc(C#N)c2)c2c1[C@H](O)C(F)(F)C2 [Compound 163, (S)-3-((2,2-Difluoro-1-hydroxy-7-(methylsulfonyl)-2,3-dihydro-1H-inden-4-yl)oxy)-5-fluorobenzonitrile]	< 50 nM		Tumor size (mm^3) Mean ± SEM [2]: 1612 ± 305 mm^3; Tumor size (mm^3) Mean ± SEM [3]: 2133.89 ± 306.44 mm^3

Compound	EC50 (786-O-Hif-Luc cells; [4])	IC50 [1]	other results
CS(=O)(=O)c1ccc(Oc2cc(F)cc(F)c2)c2c1C(O)C(F)(F)C2 (stereo not shown) [Compound 159]		< 0.05 µM	EC50 (786-O-Hif-Luc cells; [5]): < 50 nM; EC50 (786-O cells): < 0.05 µM
N#C[C@H]1C[C@H](Oc2ccc(S(=O)(=O)C(F)(F)F)c3c2CC(F)(F)C3O)C1 (stereo partly shown) [Compound 786]		< 0.05 µM	EC50 (786-O-Hif-Luc cells; [5]): < 50 nM
[2H]C([2H])([2H])S(=O)(=O)c1ccc(Oc2cc(F)cc(C#N)c2)c2c1[C@]([2H])(O)C(F)(F)C2 [Compound 229]	< 50 nM		
[2H][C@]1(O)c2c(S(C)(=O)=O)ccc(Oc3cc(F)cc(C#N)c3)c2CC1(F)F [Compound 247]	< 50 nM		
CS(=O)(=O)c1ccc(OC2CCOCC2)c2c1[C@H](O)C(F)(F)C2 [Compound 775]		0.25 to 1 µM	EC50 (786-O-Hif-Luc cells; [5]): 250 to 1000 nM
CS(=O)(=O)c1ccc(Oc2cc(F)cc(C#N)c2)c2c1[C@H](O)[C@@H](F)C2 [Compound 271]	250 to 1000 nM		
O=S(=O)(c1ccc(OC[C@@H]2CC2(F)F)c2c1[C@H](O)C(F)(F)C2)C(F)(F)F [Compound 728]		< 0.05 µM	EC50 (786-O-Hif-Luc cells; [5]): < 50 nM
N#Cc1cc(F)cc(Oc2ccc(S(N)(=O)=O)c3c2[C@@H](F)C(F)(F)[C@H]3O)c1 [Compound 338]	< 50 nM		
N#Cc1cccc(Oc2ccc(S(=O)(=O)C(F)F)c3c2CC[C@H]3O)c1 [Compound 156]	250 to 1000 nM		
O[C@H]1c2c(C(F)(F)F)ccc(OC(F)F)c2CC1F (stereo partly shown) [Compound 671]		> 1 µM	
O=S(=O)(c1ccc(O[C@@H]2CCCc3cn[nH]c32)c2c1[C@H](O)C(F)(F)C2)C(F)(F)F [Compound 729]		> 1 µM	
N#Cc1cc(F)cc(Oc2ccc(S(N)(=O)=O)c3c2[C@H](F)C(F)(F)[C@H]3O)c1 [Compound 339]	250 to 1000 nM		
CC(=NO)c1c(S(=O)(=O)C(F)(F)F)ccc(Oc2cc(F)cc(Cl)c2)c1Br [Compound 106]		0.25 to 1 µM	
CCCOc1ccc(C2CC2)c2c1CC(F)(F)C2O (stereo not shown) [Compound 685]		> 1 µM	
CS(=O)(=O)c1ccc(Oc2cc(F)cc(C#N)c2)c2c1[C@H](N)C(F)(F)C2 [Compound 165]	50 to 249 nM		
N#Cc1cc(F)cc(Oc2ccc(S(=O)(=O)C(F)F)c3c2CCC3O)c1 (stereo not shown) [Compound 78]			EC50 (786-O cells): 0.25 to 1 µM
CS(=O)(=O)c1ccc(Oc2cc(Cl)cc(C#N)c2)c2c1[C@H](O)C(F)(F)C2 [Compound 234]	< 50 nM		EC50 (786-O cells): 0.05 to 0.249 µM
CS(=O)(=O)c1ccc(Oc2cc(F)cc(C#N)c2)c2c1[C@H](O)[C@H](F)[C@@H]2F [Compound 289, 3-[(1S,2S,3R)-2,3-difluoro-1-hydroxy-7-methylsulfonyl-indan-4-yl]oxy-5-fluoro-benzonitrile]	< 50 nM		
CS(=O)(=O)c1ccc(Oc2cc(F)cc(C#N)c2)c2c1[C@@H](O)C(F)(F)C2 [Compound 226]	> 1000 nM		

From patent publication US10335388B2, “Combination therapy of a HIF-2-alpha inhibitor and an immunotherapeutic agent and uses thereof” (PELOTON THERAPEUTICS, INC., priority 2015, dated 2019)
